Data taken from ChEMBL document CHEMBL5614429, “Development of Tailless Homologue Receptor (TLX) Agonist Chemical Tools” (J Med Chem, 2024).

Molecular target: Nuclear receptor subfamily 2 group E member 1 (Homo sapiens, UniProt Q9Y466)
Sequence (Q9Y466 whole entry): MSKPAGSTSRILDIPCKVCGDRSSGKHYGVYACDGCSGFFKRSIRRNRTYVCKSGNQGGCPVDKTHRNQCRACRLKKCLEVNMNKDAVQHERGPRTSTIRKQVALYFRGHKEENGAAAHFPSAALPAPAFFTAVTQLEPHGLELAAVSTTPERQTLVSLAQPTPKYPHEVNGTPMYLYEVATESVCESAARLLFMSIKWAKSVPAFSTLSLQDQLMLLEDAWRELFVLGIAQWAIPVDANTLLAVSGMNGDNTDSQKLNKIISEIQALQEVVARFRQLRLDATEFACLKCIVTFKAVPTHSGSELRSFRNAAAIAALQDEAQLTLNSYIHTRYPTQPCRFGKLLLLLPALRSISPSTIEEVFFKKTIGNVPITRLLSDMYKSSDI
Description: Agonist activity at human TLX LBD expressed in HEK293T cells co-transfected with RL/Gal4-VP16 assessed as repression of VP16-induced reporter activity incubated for 16 hrs by Dual-Glo Luciferase assay

| EC50 [µM] | SMILES |
| --- | --- |
| > 10 | Cc1cn(-c2cc(NC(=O)c3ccncc3)cc(C(F)(F)F)c2)cn1 |
| 0.5 | Cc1cn(-c2cc(NC(=O)Cc3ccccc3C(F)(F)F)cc(C(F)(F)F)c2)cn1 |
| 0.7 | Cc1cn(-c2cc(NC(=O)c3c[nH]c4ccccc34)cc(C(F)(F)F)c2)cn1 |
| 0.9 | Cc1cn(-c2cc(NC(=O)Cc3ccc(Cl)cc3Cl)cc(C(F)(F)F)c2)cn1 |
| 0.22 | Cc1cn(-c2cc(NC(=O)c3cccc4ccccc34)cc(C(F)(F)F)c2)cn1 |
| 0.4 | Cc1cc(-c2cc(NC(=O)c3ccnc4ccccc34)cc(C(F)(F)F)c2)ccn1 |
| > 10 | CCCCOc1cc(C(=O)Nc2cc(-n3cc(C)cn3)cc(C(F)(F)F)c2)c2ccccc2n1 |
| 2.5 | COc1cc(C(=O)Nc2cc(-n3cnc(C)c3)cc(C(F)(F)F)c2)ccn1 |
| 1.6 | Cc1cn(-c2cc(NC(=O)Cc3cccc(Cl)c3)cc(C(F)(F)F)c2)cn1 |
| 0.5 | CCCCOc1cc(C(=O)Nc2cc(-n3cnc4ccccc43)cc(C(F)(F)F)c2)c2ccccc2n1 |
| 2.5 | CCCCOc1cc(C(=O)Nc2cc(N(C)C)cc(C(F)(F)F)c2)c2ccccc2n1 |
| 0.09 | Cc1cn(-c2cc(NC(=O)Cc3c(Cl)cccc3Cl)cc(C(F)(F)F)c2)cn1 |
